Holding throughout (format): in vivo
For assay [1], the system named is Amaranthus retroflexus. As to the kind of experiment: Pre-emergence herbicidal activity, AMARE. Particulars: Application pre-emergence, 1000 g/Ha, evaluated after 13 days, scale 0-5. The method, then: (§1) Seeds of a variety of test species were sown in standard soil in pots. After cultivation for one day (pre-emergence) under controlled conditions in a glasshouse (at 24/16° C., day/night; 14 hours light; 65% humidity), the plants were sprayed with an aqueous spray solution derived from the formulation of the technical active ingredient in acetone/water (50:50) solution containing 0.5% Tween 20 (polyoxyethelyene sorbitan monolaurate, CAS RN 9005-64-5). The test plants were then grown in a glasshouse under controlled conditions (at 24/16° C., day/night; 14 hours light; 65% humidity) and watered twice daily. After 13 days, the test was evaluated (5=total damage to plant; 0=no damage to plant).

Assay [2] deals with Echinochloa crus-galli. Briefly: Pre-emergence herbicidal activity, ECHCG. Particulars: Application pre-emergence, 1000 g/Ha, evaluated after 13 days, scale 0-5. As to the method:
as §1

Assay [3] concerns Abutilon theophrasti. Briefly: Pre-emergence herbicidal activity, ABUTH. Particulars: Application pre-emergence, 1000 g/Ha, evaluated after 13 days, scale 0-5. As to the method: as §1
The test system of assay [4] is Setaria faberi. As to the kind of experiment: Pre-emergence herbicidal activity, SETFA. Particulars: Application pre-emergence, 1000 g/Ha, evaluated after 13 days, scale 0-5. As to the method:
as §1

Assay [5] deals with Alopecurus myosuroides. As to the kind of experiment: Pre-emergence herbicidal activity, ALOMY. Particulars: Application pre-emergence, 1000 g/Ha, evaluated after 13 days, scale 0-5. The method, then: as §1
Assay [6] deals with Zea mays. Briefly: Pre-emergence herbicidal activity, ZEAMX. Particulars: Application pre-emergence, 1000 g/Ha, evaluated after 13 days, scale 0-5. The method, then:
as §1

For assay [7], the system named is Amaranthus retroflexus. As to the kind of experiment: Post-emergence herbicidal activity, AMARE. Particulars: Application post-emergence, 1000 g/Ha, evaluated after 13 days, scale 0-5. As to the method:
(§2) Seeds of a variety of test species were sown in standard soil in pots. After 8 days cultivation (post-emergence) under controlled conditions in a glasshouse (at 24/16° C., day/night; 14 hours light; 65% humidity), the plants were sprayed with an aqueous spray solution derived from the formulation of the technical active ingredient in acetone/water (50:50) solution containing 0.5% Tween 20 (polyoxyethelyene sorbitan monolaurate, CAS RN 9005-64-5). The test plants were then grown in a glasshouse under controlled conditions (at 24/16° C., day/night; 14 hours light; 65% humidity) and watered twice daily. After 13 days, the test was evaluated (5=total damage to plant; 0=no damage to plant).

The subject of assay [8] is Abutilon theophrasti. Briefly: Post-emergence herbicidal activity, ABUTH. The settings on record: Application post-emergence, 1000 g/Ha, evaluated after 13 days, scale 0-5. The method, then:
as §2

Assay [9] deals with Setaria faberi. Briefly: Post-emergence herbicidal activity, SETFA. The settings on record: Application post-emergence, 1000 g/Ha, evaluated after 13 days, scale 0-5. The method, then: as §2
Assay [10] concerns Echinochloa crus-galli. As to the kind of experiment: Post-emergence herbicidal activity, ECHCG. Particulars: Application post-emergence, 1000 g/Ha, evaluated after 13 days, scale 0-5. The method, then: as §2
The subject of assay [11] is Zea mays. As to the kind of experiment: Post-emergence herbicidal activity, ZEAMX. Particulars: Application post-emergence, 1000 g/Ha, evaluated after 13 days, scale 0-5. As to the method: as §2
For assay [12], the system named is Alopecurus myosuroides. Briefly: Post-emergence herbicidal activity, ALOMY. Particulars: Application post-emergence, 1000 g/Ha, evaluated after 13 days, scale 0-5. As to the method:
as §2

The results in this text go back to patent publication US20160251332A1, “Herbicidal Compounds” (SYNGENTA PARTICIPATIONS AG, priority 2013, published 2016).

As to `CN1CC(O)N(c2cc(C(F)(F)F)c(-c3ccc(F)cc3)cn2)C1=O` (stereo not shown) [Compound A2], the AMARE damage score in the assay on Amaranthus retroflexus [1] and in the assay with Amaranthus retroflexus [7] was 5 throughout. Further, the ECHCG damage score with Echinochloa crus-galli [2] and in the assay on Echinochloa crus-galli [10] was 5 each time. Moreover, the results for the ABUTH damage score with Abutilon theophrasti [3] and with Abutilon theophrasti [8] were 4 and 5, respectively. Moreover, the SETFA damage score in the assay with Setaria faberi [4] and in the assay on Setaria faberi [9] was 5 in each case. Moreover, the ALOMY damage score came out at 4 with Alopecurus myosuroides [5] and 5 in the assay on Alopecurus myosuroides [12]. The ZEAMX damage score is 5 with Zea mays [6] and 4 with Zea mays [11].
`COc1ccccc1-c1cnc(N2C(=O)N(C)CC2O)cc1C(F)(F)F` (stereo not shown) [Compound A18]: the AMARE damage score is given as 2 in the assay on Amaranthus retroflexus [1] and 5 in the assay on Amaranthus retroflexus [7]. In addition, the ECHCG damage score was found to be 3 in the assay with Echinochloa crus-galli [2] and 4 in the assay with Echinochloa crus-galli [10]. For the same compound, the ABUTH damage score is recorded as 2 with Abutilon theophrasti [3] and 5 in the assay on Abutilon theophrasti [8]. In addition, the SETFA damage score with Setaria faberi [4] worked out at 1; in the assay on Setaria faberi [9], 2. Also, the ALOMY damage score with Alopecurus myosuroides [5] and with Alopecurus myosuroides [12] was 2 in each case. Also, the ZEAMX damage score with Zea mays [6] is 1; in the assay on Zea mays [11], 5.
With `CN1CC(O)N(c2cc(C(C)(C)F)ccn2)C1=O` (stereo not shown) [Compound A38], the AMARE damage score in the assay with Amaranthus retroflexus [1] and in the assay with Amaranthus retroflexus [7] was 5 throughout. For the same compound, the ECHCG damage score in the assay on Echinochloa crus-galli [2] is on record as 4; with Echinochloa crus-galli [10], 5. Moreover, the ABUTH damage score in the assay with Abutilon theophrasti [3] and in the assay with Abutilon theophrasti [8] was 5 throughout. The SETFA damage score stood at 4 in the assay on Setaria faberi [4] and 5 in the assay with Setaria faberi [9]. The ALOMY damage score came to 4 in the assay with Alopecurus myosuroides [5] and 5 in the assay with Alopecurus myosuroides [12]. The ZEAMX damage score with Zea mays [6] is reported as 0; in the assay on Zea mays [11] it was 4.
Turning to `CN1CC(O)N(c2cc(C(F)(F)F)c(-c3cccc(NS(C)(=O)=O)c3)cn2)C1=O` (stereo not shown) [Compound A8], the AMARE damage score with Amaranthus retroflexus [1] worked out at 2; in the assay on Amaranthus retroflexus [7], 5. In addition, the ECHCG damage score with Echinochloa crus-galli [2] and in the assay with Echinochloa crus-galli [10] was 1 in each case. Besides, the results for the ABUTH damage score with Abutilon theophrasti [3] and with Abutilon theophrasti [8] were 2 and 4, respectively. The SETFA damage score in the assay with Setaria faberi [4] is recorded as 3; in the assay on Setaria faberi [9], 1. Besides, the ALOMY damage score in the assay on Alopecurus myosuroides [5] and in the assay on Alopecurus myosuroides [12] was 1 in each case. Further, the ZEAMX damage score in the assay with Zea mays [6] worked out at 2; in the assay with Zea mays [11] it was 1.
For the compound `CN1CC(O)N(c2cc(C(F)(F)F)c(-c3ccc(C#N)cc3)cn2)C1=O` (stereo not shown) [Compound A16], the AMARE damage score in the assay on Amaranthus retroflexus [1] and in the assay on Amaranthus retroflexus [7] was 5 throughout. Further, the ECHCG damage score in the assay with Echinochloa crus-galli [2] turned out to be 3; in the assay with Echinochloa crus-galli [10], 5. The ABUTH damage score with Abutilon theophrasti [3] stood at 3; with Abutilon theophrasti [8], 5. Further, the SETFA damage score was found to be 4 in the assay with Setaria faberi [4] and 5 in the assay on Setaria faberi [9]. The ALOMY damage score with Alopecurus myosuroides [5] worked out at 2; in the assay with Alopecurus myosuroides [12] it was 5. For the same compound, the ZEAMX damage score with Zea mays [6] worked out at 3; with Zea mays [11], 5.
Consider `CN1CC(O)N(c2cc(C(F)(F)F)c(C(=O)NC(C)(C)C)cn2)C1=O` (stereo not shown) [Compound A43], for which the AMARE damage score in the assay with Amaranthus retroflexus [1] and with Amaranthus retroflexus [7] was 5 each time. For the same compound, the ECHCG damage score in the assay with Echinochloa crus-galli [2] and in the assay with Echinochloa crus-galli [10] was 5 each time. The ABUTH damage score with Abutilon theophrasti [3] and with Abutilon theophrasti [8] was 5 throughout. Also, the SETFA damage score in the assay with Setaria faberi [4] and in the assay on Setaria faberi [9] was 5 in each case. Moreover, the ZEAMX damage score in the assay with Zea mays [6] turned out to be 2; with Zea mays [11] it was 5.
Take `CN1CC(O)N(c2cc(C(F)(F)F)c(-c3cncc(Cl)c3)cn2)C1=O` (stereo not shown) [Compound A22]: the AMARE damage score in the assay on Amaranthus retroflexus [1] and in the assay on Amaranthus retroflexus [7] was 5 throughout. Moreover, the ECHCG damage score in the assay on Echinochloa crus-galli [2] and in the assay on Echinochloa crus-galli [10] was 5 each time. Also, the ABUTH damage score in the assay on Abutilon theophrasti [3] and with Abutilon theophrasti [8] was 5 in each case. Also, the SETFA damage score with Setaria faberi [4] and in the assay with Setaria faberi [9] was 5 throughout. Moreover, the ZEAMX damage score in the assay on Zea mays [6] turned out to be 3; in the assay with Zea mays [11], 5.
For the compound `CN1CC(O)N(c2cc(C(F)(F)F)c(-c3ccc(N4CCOCC4)nc3)cn2)C1=O` (stereo not shown) [Compound A31], the AMARE damage score in the assay on Amaranthus retroflexus [1] is on record as 2; in the assay on Amaranthus retroflexus [7] it was 5. The ECHCG damage score stood at 0 in the assay on Echinochloa crus-galli [2] and 4 with Echinochloa crus-galli [10]. The values for the ABUTH damage score with Abutilon theophrasti [3] and with Abutilon theophrasti [8] were 2 and 5, respectively. In addition, the results for the SETFA damage score in the assay with Setaria faberi [4] and in the assay on Setaria faberi [9] were 2 and 5, respectively. In addition, the ZEAMX damage score stood at 0 in the assay with Zea mays [6] and 2 in the assay on Zea mays [11].
Regarding `CN1CC(O)N(c2cc(C(F)(F)F)c(NC(=O)C(C)(C)C)cn2)C1=O` (stereo not shown) [Compound A42], the AMARE damage score in the assay with Amaranthus retroflexus [1] and with Amaranthus retroflexus [7] was 5 throughout. The ECHCG damage score with Echinochloa crus-galli [2] and in the assay with Echinochloa crus-galli [10] was 5 throughout. In addition, the ABUTH damage score in the assay with Abutilon theophrasti [3] and in the assay on Abutilon theophrasti [8] was 5 each time. The SETFA damage score in the assay on Setaria faberi [4] and in the assay with Setaria faberi [9] was 5 each time. Moreover, the ZEAMX damage score in the assay with Zea mays [6] is reported as 3; in the assay with Zea mays [11], 5.
As for `CN1CC(O)N(c2cc(C(F)F)ccn2)C1=O` (stereo not shown) [Compound A44], the AMARE damage score with Amaranthus retroflexus [1] and in the assay with Amaranthus retroflexus [7] was 5 in each case. Moreover, the ECHCG damage score is recorded as 4 in the assay on Echinochloa crus-galli [2] and 5 in the assay with Echinochloa crus-galli [10]. Also, the ABUTH damage score in the assay on Abutilon theophrasti [3] and in the assay with Abutilon theophrasti [8] was 5 each time. For the same compound, the SETFA damage score in the assay with Setaria faberi [4] and in the assay with Setaria faberi [9] was 5 in each case. Besides, the ZEAMX damage score in the assay on Zea mays [6] is on record as 2; in the assay with Zea mays [11], 4.
For `COc1cc(-c2cnc(N3C(=O)N(C)CC3O)cc2C(F)(F)F)ccn1` (stereo not shown) [Compound A24], the AMARE damage score in the assay on Amaranthus retroflexus [1] and in the assay on Amaranthus retroflexus [7] was 5 each time. The ECHCG damage score with Echinochloa crus-galli [2] and in the assay on Echinochloa crus-galli [10] was 5 each time. Besides, the ABUTH damage score in the assay on Abutilon theophrasti [3] and with Abutilon theophrasti [8] was 5 in each case. For the same compound, the SETFA damage score in the assay with Setaria faberi [4] and with Setaria faberi [9] was 5 each time. Moreover, the ZEAMX damage score in the assay on Zea mays [6] came to 2; in the assay on Zea mays [11], 5.
Consider `CN1CC(O)N(c2cc(C(F)(F)F)c(-c3cccc(C#N)c3)cn2)C1=O` (stereo not shown) [Compound A17], for which the AMARE damage score in the assay on Amaranthus retroflexus [1] and with Amaranthus retroflexus [7] was 5 throughout. Further, the ECHCG damage score in the assay with Echinochloa crus-galli [2] and in the assay with Echinochloa crus-galli [10] was 5 throughout. The ABUTH damage score in the assay on Abutilon theophrasti [3] and in the assay with Abutilon theophrasti [8] was 5 each time. Besides, the SETFA damage score is 4 in the assay with Setaria faberi [4] and 5 with Setaria faberi [9]. For the same compound, the ALOMY damage score turned out to be 4 in the assay with Alopecurus myosuroides [5] and 5 in the assay on Alopecurus myosuroides [12]. Also, the ZEAMX damage score in the assay on Zea mays [6] is recorded as 2.
In the case of `CCOC(=O)c1cncc(-c2cnc(N3C(=O)N(C)CC3O)cc2C(F)(F)F)c1` (stereo not shown) [Compound A34], the AMARE damage score in the assay with Amaranthus retroflexus [1] and with Amaranthus retroflexus [7] was 5 each time. In addition, the ECHCG damage score in the assay with Echinochloa crus-galli [2] worked out at 4; with Echinochloa crus-galli [10], 5. For the same compound, the ABUTH damage score in the assay with Abutilon theophrasti [3] and in the assay with Abutilon theophrasti [8] was 5 in each case. Moreover, the SETFA damage score worked out at 3 in the assay on Setaria faberi [4] and 5 in the assay on Setaria faberi [9]. For the same compound, the ZEAMX damage score in the assay on Zea mays [6] is 1; in the assay on Zea mays [11], 3.
Take `CN1CC(O)N(c2cc(C(F)(F)F)c(-c3ccc(F)nc3)cn2)C1=O` (stereo not shown) [Compound A32]: the AMARE damage score with Amaranthus retroflexus [1] and in the assay with Amaranthus retroflexus [7] was 5 in each case. The ECHCG damage score in the assay with Echinochloa crus-galli [2] and with Echinochloa crus-galli [10] was 5 in each case. The ABUTH damage score in the assay on Abutilon theophrasti [3] and with Abutilon theophrasti [8] was 5 in each case. Also, the SETFA damage score in the assay on Setaria faberi [4] and with Setaria faberi [9] was 5 throughout. Besides, the values for the ZEAMX damage score in the assay with Zea mays [6] and with Zea mays [11] were 3 and 5, respectively.
